Test results taken from the supplement of paper PMC10331698.
± gives the standard deviation of the averaged measurements.

Experiments:
Test in all cases: level (log10 ratio to DMSO vehicle control); higher = higher biomarker level / cell amount than vehicle control
[1] = compound: C=CC(=O)OCCC(F)(F)C(F)(F)C(F)(F)C(F)(F)C(F)(F)C(F)(F)C(F)(F)C(F)(F)F [8:2 Fluorotelomer acrylate]; details: in DMSO
Protocol: (§1)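 BioMAP Diversity Plus panel of 12 human primary cell co-culture systems (3C, 4H, LPS, SAg, BT, BF4T, BE3C, CASM3C, HDF3CGF, KF3CT, MyoF, Mphg). Compounds were added 1 h before stimulation and left for 24 h (MyoF 48 h; BT 72 h for soluble read-outs or 6 d for IgG). Biomarkers were read by ELISA, cytotoxicity by SRB, PBMC viability and proliferation by Alamar Blue. Each well value was divided by the mean of 8 DMSO control wells on the same plate and log10 transformed; duplicate blinded samples were tested at 4 concentrations.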

[2] = compound: FC(F)(I)C(F)(F)C(F)(F)C(F)(F)C(F)(F)C(F)(F)I [1,6-Diiodoperfluorohexane]; details: 6700 nM; in DMSO
Protocol: as §1

[3] = compound: O=C(CC(=O)C(F)(F)C(F)(F)C(F)(F)F)c1cccs1 [(Perfluorobutyryl)-2-thenoylmethane]; details: in DMSO
Protocol: as §1

Perfluoropinacol = compound: OC(C(F)(F)F)(C(F)(F)F)C(O)(C(F)(F)F)C(F)(F)F [Perfluoropinacol]; details: in DMSO
Protocol: as §1

[4] = compound: OCC(F)(F)C(F)(F)C(F)(F)C(F)(F)C(F)(F)C(F)(F)C(F)(F)C(F)(F)C(F)(F)C(F)(F)C(F)(F)F [11:1 Fluorotelomer alcohol]; details: in DMSO
Protocol: as §1

[5] = compound: OCC(F)(F)C(F)(F)C(F)(F)C(F)(F)C(F)(F)C(F)(F)C(F)(F)C(F)(F)CO [1H,1H,10H,10H-Perfluorodecane-1,10-diol]; details: in DMSO
Protocol: as §1

[6] = compound: OCC(F)(F)C(F)(F)C(F)(F)C(F)(F)C(F)(F)C(F)(F)F [6:1 Fluorotelomer alcohol]; details: in DMSO
Protocol: as §1

| Test System | level (log10) ([1]; 6700 nM) | level (log10) ([1]; 20000 nM) | level (log10) ([1]; 60000 nM) | level (log10) [2] | level (log10) ([3]; 6700 nM) | level (log10) ([3]; 20000 nM) | level (log10) (Perfluoropinacol; 6700 nM) | level (log10) (Perfluoropinacol; 20000 nM) | level (log10) ([4]; 1100 nM) | level (log10) ([4]; 3300 nM) | level (log10) ([4]; 10000 nM) | level (log10) ([5]; 6700 nM) | level (log10) ([5]; 20000 nM) | level (log10) ([5]; 60000 nM) | level (log10) ([6]; 6700 nM) | level (log10) ([6]; 20000 nM) | level (log10) ([6]; 60000 nM) |
| --- | --- | --- | --- | --- | --- | --- | --- | --- | --- | --- | --- | --- | --- | --- | --- | --- | --- |
| BE3C:EGFR | -0.0155 ± 0.0021 | -0.015 ± 0.013 | 0.003 ± 0.025 | -0.015 | -0.0725 ± 0.029 | -0.094 ± 0.041 | 0.0065 ± 0.00071 | -0.027 ± 0.0085 | -0.022 ± 0.011 | -0.003 ± 0.018 | -0.019 ± 0.0099 | -0.031 ± 0.0085 | -0.042 | -0.102 | 0.0115 ± 0.0064 | 0.0035 ± 0.011 | -0.0585 ± 0.081 |
| 3C:CXCL9/MIG | -0.0135 ± 0.011 | -0.005 ± 0.0042 | 0.01 ± 0.018 | -0.002 | -0.0205 ± 0.012 | -0.0255 ± 0.0021 | -0.005 ± 0.013 | -0.014 ± 0.0085 | -0.001 ± 0.014 | 0.0045 ± 0.0064 | 0.0145 ± 0.016 | -0.0145 ± 0.011 | -0.016 ± 0.0071 | -0.007 | 0.0065 ± 0.0035 | 0.0065 ± 0.0035 | 0.019 |
| BF4T:MMP-1 | 0.002 ± 0.0057 | 0.0025 ± 0.0021 | 0.0175 ± 0.022 | -0.006 | -0.02 ± 0.011 | -0.0785 ± 0.0092 | -0.0245 ± 0.00071 | -0.0165 ± 0.0035 | -0.0095 ± 0.005 | -0.01 | -0.0015 ± 0.016 | -0.003 ± 0.011 | -0.0505 ± 0.011 | -0.007 | 0.002 ± 0.014 | 0.0025 ± 0.0078 | -0.011 ± 0.0028 |
| LPS:sPGE2 | -0.118 ± 0.005 | -0.102 ± 0.044 | -0.069 ± 0.03 | -0.063 | -0.066 ± 0.052 | 0.0635 ± 0.0064 | 0.086 ± 0.038 | 0.182 ± 0.015 | 0.151 ± 0.075 | 0.212 ± 0.0064 | 0.211 ± 0.044 | -0.0125 ± 0.03 | 0.0375 ± 0.0078 | 0.025 | -0.0055 ± 0.028 | 0.004 ± 0.0099 | 0.005 ± 0.03 |
| BF4T:MMP-3 | -0.014 ± 0.0057 | -0.022 ± 0.0057 | 0.0085 ± 0.028 | -0.029 | -0.0475 ± 0.026 | -0.0985 ± 0.032 | -0.013 ± 0.04 | -0.008 ± 0.0057 | 0.008 ± 0.0014 | 0.009 ± 0.0057 | 0.0435 ± 0.035 | 0.0015 ± 0.021 | -0.0375 ± 0.026 | -0.105 | -0.012 ± 0.018 | -0.0195 ± 0.0064 | -0.002 ± 0.021 |
| LPS:IL-1alpha | 0.021 ± 0.013 | 0.0315 ± 0.052 | 0.0315 ± 0.0078 | -0.016 | -0.069 ± 0.034 | 0.109 ± 0.016 | 0.0305 ± 0.011 | 0.041 ± 0.0014 | -0.0655 ± 0.0092 | -0.14 ± 0.0035 | -0.144 ± 0.012 | 0.0225 ± 0.033 | 0.027 ± 0.016 | 0.066 | -0.038 ± 0.03 | -0.015 ± 0.061 | -0.0105 ± 0.023 |
| LPS:SRB | 0.0015 ± 0.0021 | -0.005 ± 0.0014 | 0.004 ± 0.0042 | 0.012 | -0.015 ± 0.014 | -0.117 ± 0.019 | -0.0265 ± 0.0021 | -0.151 ± 0.0064 | -0.029 ± 0.0099 | -0.0455 ± 0.0021 | -0.036 ± 0.0014 | 0.0005 ± 0.016 | -0.012 ± 0.017 | -0.042 | -0.005 ± 0.0014 | -0.0105 ± 0.005 | -0.0005 ± 0.0092 |
| SAg:CD38 | -0.001 ± 0.0085 | -0.003 ± 0.0071 | -0.004 ± 0.013 | -0.008 | -0.08 ± 0.055 | -0.223 ± 0.035 | -0.012 ± 0.021 | -0.113 ± 0.023 | -0.0115 ± 0.084 | -0.014 ± 0.073 | 0.0035 ± 0.042 | -0.0275 ± 0.00071 | -0.04 ± 0.0099 | -0.027 | -0.0215 ± 0.088 | -0.0085 ± 0.12 | -0.018 ± 0.17 |
| 3C:HLA-DR | 0.009 ± 0.0071 | 0.0055 ± 0.013 | 0.0175 ± 0.029 | -0.005 | -0.093 ± 0.045 | -0.511 ± 0.026 | -0.0405 ± 0.0035 | -0.132 ± 0.028 | -0.019 ± 0.0042 | -0.034 ± 0.011 | -0.04 ± 0.016 | -0.039 ± 0.02 | -0.031 ± 0.021 | -0.131 | 0.004 ± 0.011 | -0.003 ± 0.0028 | -0.0095 ± 0.0078 |
| BT:sIL-17F | -0.018 ± 0.061 | -0.0565 ± 0.022 | -0.03 ± 0.014 | 0.06 | -0.114 ± 0.061 | -0.45 ± 0.048 | -0.063 ± 0.028 | -0.23 ± 0.033 | 0.308 ± 0.0078 | 0.319 ± 0.096 | 0.33 ± 0.077 | -0.123 ± 0.064 | -0.054 ± 0.1 | -0.619 | 0.0105 ± 0.0035 | -0.0465 ± 0.025 | -0.388 ± 0.029 |
| SAg:CD40 | -0.0085 ± 0.00071 | -0.0075 ± 0.0021 | -0.01 ± 0.017 | -0.018 | -0.27 ± 0.11 | -0.412 ± 0.093 | -0.021 ± 0.016 | -0.146 ± 0.013 | -0.038 ± 0.024 | -0.068 | -0.0685 ± 0.042 | -0.0395 ± 0.0078 | -0.0625 ± 0.028 | -0.081 | -0.02 ± 0.023 | -0.0075 ± 0.0021 | -0.005 ± 0.033 |
| BT:Secreted IgG | -0.0205 ± 0.012 | -0.041 ± 0.031 | -0.11 ± 0.13 | 0.019 | -0.009 ± 0.018 | -0.855 ± 0.016 | -0.322 ± 0.02 | -1.36 | 0.007 ± 0.025 | 0.0025 ± 0.033 | -0.014 ± 0.054 | -0.0135 ± 0.005 | -0.0415 ± 0.011 | -0.82 | 0.004 ± 0.042 | -0.0005 ± 0.04 | -0.161 ± 0.14 |
| BT:sTNF-alpha | 0.128 ± 0.0057 | 0.034 ± 0.027 | 0.159 ± 0.14 | -0.145 | -0.0385 ± 0.063 | -0.354 ± 0.13 | 0.0425 ± 0.061 | -0.146 ± 0.015 | -0.057 ± 0.031 | -0.127 ± 0.0064 | -0.0825 ± 0.079 | -0.017 ± 0.085 | -0.007 ± 0.031 | -0.762 | 0.0265 ± 0.084 | -0.0265 ± 0.033 | -0.33 ± 0.0042 |
| 4H:CCL2/MCP-1 | -0.025 ± 0.018 | -0.016 ± 0.023 | 0.012 ± 0.051 | -0.03 | -0.0825 ± 0.0078 | -0.249 ± 0.0042 | -0.058 ± 0.023 | -0.168 ± 0.025 | 0.0335 ± 0.033 | 0.0495 ± 0.00071 | 0.0835 ± 0.023 | -0.0685 ± 0.0064 | -0.105 ± 0.018 | -0.092 | -0.005 ± 0.0071 | -0.0135 ± 0.0035 | 0.002 ± 0.042 |
| BT:sIL-6 | 0.0525 ± 0.019 | 0.029 ± 0.0028 | 0.0215 ± 0.039 | -0.018 | -0.009 ± 0.024 | -0.265 ± 0.067 | -0.073 ± 0.051 | -0.0655 ± 0.019 | 0.209 ± 0.0092 | 0.116 ± 0.034 | 0.083 ± 0.085 | -0.0075 ± 0.011 | -0.0405 ± 0.032 | -0.673 | -0.001 ± 0.025 | -0.034 ± 0.073 | -0.296 ± 0.036 |
